Source: US20210040118A1, “IMMUNOMODULATORS, COMPOSITIONS AND METHODS THEREOF” (BETTA PHARMACEUTICALS CO., LTD, priority 2018, published 2021)

target: T1, PD-1/PD-L1 (Homo sapiens, UniProt Q9NZQ7); assay: PD-1/PD-L1 homogenous time-resolved fluorescence (HTRF) binding assay; conditions: recombinant human PD-L1 (19-238) His-tag / human PD-1 (25-167) Fc tag, class symbols
T1 construct: Recombinant human PD-L1 protein (19-238) with a His-tag at the C-terminus; purchased AcroBiosystems PD1-H5229 (PD-L1); PD1-H5257 (PD-1)
Procedure, shortened: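 HTRF binding of human PD-1 (25-167, Fc-tagged) at 3 nM and PD-L1 (19-238, His-tagged) at 10 nM, preincubated 40 min with inhibitor in PBS pH 7.4, 0.05% Tween-20, 0.1% BSA, 1% DMSO, 25°C. Eu anti-IgG (1 nM) and anti-His-APC (20 nM) added, 60 min; 665/620 nm ratio; IC50 from curve fit.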

T1 sequence (Q9NZQ7 19-238): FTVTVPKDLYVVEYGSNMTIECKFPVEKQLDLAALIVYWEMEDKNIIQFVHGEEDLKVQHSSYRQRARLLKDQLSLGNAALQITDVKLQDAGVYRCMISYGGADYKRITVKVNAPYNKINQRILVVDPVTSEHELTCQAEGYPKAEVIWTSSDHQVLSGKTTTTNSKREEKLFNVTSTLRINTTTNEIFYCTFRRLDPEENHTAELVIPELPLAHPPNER

Row | SMILES | IC50 [µM]
1 | COC(=O)NCC1(N2CCc3nc(C(=O)N4CCc5c(-c6cccc7c6CCN7C(=O)c6nc7c(s6)CN(C6(CNC(=O)OC)CC6)CC7)cccc54)sc3C2)CC1 [Example 131, dimethyl (((([4,4′-biindoline]-1,1′-dicarbonyl)bis(6,7-dihydrothiazolo[5,4-c]pyridine-2,5(4H)-diyl))bis(cyclopropane-1,1-diyl))bis(methylene))dicarbamate] | 0.025 to 0.1
2 | COC(=O)NC1(CN2CCc3nc(C(=O)N4CCc5c(-c6cccc7c6CCN7C(=O)c6nc7c(s6)CN(CC6(NC(=O)OC)CC6)CC7)cccc54)sc3C2)CC1 [Example 132, dimethyl (((([4,4′-biindoline]-1,1′-dicarbonyl)bis(6,7-dihydrothiazolo[5,4-c]pyridine-2,5(4H)-diyl))bis(methylene))bis(cyclopropane-1,1-diyl))dicarbamate] | 0.025 to 0.1
3 | NC(=S)NCCN1CCc2nc(C(=O)N3CCc4c(-c5cccc6c5CCN6C(=O)c5nc6c(s5)CN(CCNC(N)=S)CC6)cccc43)sc2C1 [Example 133, 1,1′-((([4,4′-biindoline]-1,1′-dicarbonyl)bis(6,7-dihydrothiazolo[5,4-c]pyridine2,5(4H)-diyl))bis(ethane-2,1-diyl))bis(thiourea)] | < 0.025
4 | NC(=O)NCCN1CCc2nc(C(=O)N3CCc4c(-c5cccc6c5CCN6C(=O)c5nc6c(s5)CN(CCNC(N)=O)CC6)cccc43)sc2C1 [Example 134, 1,1′-((([4,4′-biindoline]-1,1′-dicarbonyl)bis(6,7-dihydrothiazolo[5,4-c]pyridine-2,5(4H)-diyl))bis(ethane-2,1-diyl))diurea] | < 0.025
5 | COC(=O)Cn1cc(CN2CCc3nc(C(=O)N4CCc5c(-c6cccc7c6CCN7C(=O)c6nc7c(s6)CN(Cc6cn(CC(=O)OC)nn6)CC7)cccc54)sc3C2)nn1 [Example 135, dimethyl 2,2′-(((([4,4′-biindoline]-1,1′-dicarbonyl)bis(6,7-dihydrothiazolo[5,4-c]pyridine-2,5(4H)-diyl))bis(methylene))bis(1H-1,2,3-triazole-4,1-diyl))diacetate] | < 0.025
6 | O=C(c1nc2n(n1)CCNC2)N1CCc2c(-c3cccc4c3CCN4C(=O)c3nc4n(n3)CCNC4)cccc21 [Example 136, [4,4′-biindoline]-1,1′-diylbis((5,6,7,8-tetrahydro-[1,2,4]triazolo[1,5-a]pyrazin-2-yl)methanone)] | 0.1 to 0.2
7 | NCc1nc(C(=O)N2CCc3c(-c4cccc5c4CCN5C(=O)c4n[nH]c(CN)n4)cccc32)n[nH]1 [Example 137, (5-((12-azanyl)methyl)-1H-1,2,4-triazol-3-yl)(1′-(5-(aminomethyl)-1H-1,2,4-triazole-3-carbonyl)-[4,4′-biindolin]-1-yl)methanone] | 0.1 to 0.2
8 | Cc1c(Nc2nccc3cc(CNC(C)C(=O)O)cnc23)cccc1-c1cccc(Nc2nccc3cc(CNC(C)C(=O)O)cnc23)c1C (stereo not drawn) [Example 140, 2,2′-(((((2,2′-dimethyl-[1,1′-biphenyl]-3,3′-diyl)bis(azanediyl))bis(1,7-naphthyridine-8,3-diyl))bis(methylene))bis(azanediyl))dipropionic acid] | < 0.025
9 | Cc1c(Nc2nccc3cc(CNC(C(=O)O)C(C)C)cnc23)cccc1-c1cccc(Nc2nccc3cc(CNC(C(=O)O)C(C)C)cnc23)c1C (stereo not drawn) [Example 142, 2,2′-(((((2,2′-dimethyl-[1,1′-biphenyl]-3,3′-diyl)bis(azanediyl))bis(1,7-naphthyridine-8,3-diyl))bis(methylene))bis(azanediyl))bis(3-methylbutanoic acid)] | < 0.025
10 | Cc1c(Nc2nccc3cc(CNC[C@@H](O)CC(=O)O)cnc23)cccc1-c1cccc(Nc2nccc3cc(CNC[C@@H](O)CC(=O)O)cnc23)c1C [Example 143, (3S,3'S)-4,4′-(((((2,2′-dimethyl-[1,1′-biphenyl]-3,3′-diyl)bis(azanediyl))bis(1,7-naphthyridine-8,3-diyl))bis(methylene))bis(azanediyl))bis(3-hydroxybutanoic acid)] | < 0.025

Results, then the compound that gave them:

Row | IC50 [µM] | SMILES
11 | < 0.025 | Cc1c(Nc2nccc3cc(CNCC(=O)O)cnc23)cccc1-c1cccc(Nc2nccc3cc(CNCC(=O)O)cnc23)c1C [Example 138, 2,2′-(((((2,2′-dimethyl-[1,1′-biphenyl]-3,3′-diyl)bis(azanediyl))bis(1,7-naphthyridine-8,3-diyl))bis(methylene))bis(azanediyl))diacetic acid]
12 | < 0.025 | Cc1c(Nc2nccc3cc(CNCCO)cnc23)cccc1-c1cccc(Nc2nccc3cc(CNCC(=O)O)cnc23)c1C [Example 139, ((8-((3′-((3-(((2-hydroxyethyl)amino)methyl)-1,7-naphthyridin-8-yl)amino)-2,2′-dimethyl-[1,1′-biphenyl]-3-yl)amino)-1,7-naphthyridin-3-yl)methyl)glycine]
13 | < 0.025 | Cc1c(Nc2nccc3cc(CNCC(=O)O)cnc23)cccc1-c1cccc(Nc2nccc3cc(CNC[C@@H](O)CC(=O)O)cnc23)c1C [Example 141, (S)-4-(((8-((3′-((3-(((carboxymethyl)amino)methyl)-1,7-naphthyridin-8-yl)amino)-2,2′-dimethyl-[1,1′-biphenyl]-3-yl)amino)-1,7-naphthyridin-3-yl)methyl)amino)-3-hydroxybutanoic acid]
14 | < 0.025 | Cc1c(Nc2nccc3cc(CNCC(N)=O)cnc23)cccc1-c1cccc(Nc2nccc3cc(CNCC(N)=O)cnc23)c1C [Example 144, 2,2′-(((((2,2′-dimethyl-[1,1′-biphenyl]-3,3′-diyl)bis(azanediyl))bis(1,7-naphthyridine-8,3-diyl))bis(methylene))bis(azanediyl))diacetamide]
15 | < 0.025 | Cc1c(Nc2nccc3cc(CNCC(=O)N(C)C)cnc23)cccc1-c1cccc(Nc2nccc3cc(CNCC(=O)N(C)C)cnc23)c1C [Example 145, 2,2′-(((((2,2′-dimethyl-[1,1′-biphenyl]-3,3′-diyl)bis(azanediyl))bis(1,7-naphthyridine-8,3-diyl))bis(methylene))bis(azanediyl))bis(N,N-dimethylacetamide)]
16 | < 0.025 | Cc1c(Nc2nccc3cc(CNCC(=O)N(C)C)cnc23)cccc1-c1cccc(Nc2nccc3cc(CNCC(F)(F)F)cnc23)c1C [Example 146, 2-(((8-((2,2′-dimethyl-3′-((3-(((2,2,2-trifluoroethyl)amino)methyl)-1,7-naphthyridin-8-yl)amino)-[1,1′-biphenyl]-3-yl)amino)-1,7-naphthyridin-3-yl)methyl)amino)-N,N-dimethylacetamide]
17 | < 0.025 | CNC(=O)CNCc1cnc2c(Nc3cccc(-c4cccc(Nc5nccc6cc(CNCC(=O)N(C)CCO)cnc56)c4C)c3C)nccc2c1 [Example 147, 2-(((8-((2,2′-dimethyl-3′-((3-(((2-(methylamino)-2-oxoethyl)amino)methyl)-1,7-naphthyridin-8-yl)amino)-[1,1′-biphenyl]-3-yl)amino)-1,7-naphthyridin-3-yl)methyl)amino)-N-(2-hydroxyethyl)-N-methylacetamide]
18 | < 0.025 | Cc1c(Nc2nccc3cc(CNCC(=O)O)cnc23)cccc1-c1cccc(Nc2nccc3cc(CNCC(=O)N(C)C)cnc23)c1C [Example 148, ((8-((3′-((3-(((2-(dimethylamino)-2-oxoethyl)amino)methyl)-1,7-naphthyridin-8-yl)amino)-2,2′-dimethyl-[1,1′-biphenyl]-3-yl)amino)-1,7-naphthyridin-3-yl)methyl)glycine]
